In publication PMC9435431, “Novel chemical entities inhibiting Mycobacterium tuberculosis growth identified by phenotypic high-throughput screening” (Scientific Reports, 2022):
In brackets after ≈: the same amount, converted by molar mass. Where two headings read alike, the source gives them in different places.

Legend:
[1] = in vitro; type: cell-based; settings: human; for IC20: concentration for 20% inhibition of HepG2 cells, 72 h, n = 2
Description: HepG2 cells were seeded at 2000 cells per well in 384-well, black, clear bottom PDL coated plates in MEM medium supplemented with 10% FBS, 2 mM L-glutamine, 1 mM sodium pyruvate and incubated overnight at 37C, 5% CO2. Compounds were added and plates incubated for 72 h. Cell viability was measured using the CyQUANT® reagent and imaging on a ViewLux™ ultraHTS Microplate Imager. The IC20 and IC50 were calculated from dose response curves.

[2] = system: M. tuberculosis H37Rv; test: microbe, parasite or virus in culture; type: cell-based; settings: Mycobacterium tuberculosis, 120 h
[3] = system: wild-type M. tuberculosis; test: microbe, parasite or virus in culture; type: cell-based, Mycobacterium tuberculosis; settings: for MIC / IC90: Mycobacterium tuberculosis
[4] = system: M. tuberculosis; test: microbe, parasite or virus in culture; type: cell-based; settings: Mycobacterium tuberculosis, read-out: MIC on solid medium
[5] = in vitro; type: in vitro ADME, human; settings: for CLint scaled at 0.5 µM: human, microsomes, pH 7.4, human Clint
Description: Compounds (0.5 µM) were incubated with 0.25 mg/mL liver microsomal proteins at pH 7.4 at 37 °C. Reactions were initiated with […] and samples taken at 0, 5, 10, 15, 20 and 30 min. The reaction was stopped by addition of 95% ACN/5% MeOH containing an internal standard. Samples were combined in compound groups of six pre-sorted by mono molecular weight and analyzed by LC/MS/MS. The peak area ratios (analyte peak area/IS peak area) were converted to % remaining using the area ratio at time 0 as 100%. The. half-life (T ½) and intrinsic clearance (mCLint) were calculated.

[6] = Table 5, read-out: Wild-type MIC

In the case of `c1ccc(-c2cncc(N3CC4CC5CC3CN(C5)C4)c2)cc1` (stereo not drawn) [AAP], the IC20 [1] is reported as 27 µM, the inhibition at 20 µM ([2]; read-out: % Inhibition Run 1) is reported as 99% and the inhibition at 20 µM ([2]; read-out: % Inhibition Run 2) is reported as 97%. For the same compound, the MIC ([3]; 120 h, read-out: MTB MIC) was 23 µM (≈ 7.02 µg/mL).

For `CC(=O)n1cc(Nc2ccccc2O)c2ccccc21` [ACI-2], the IC20 at 72 h [1] was 30 µM, the inhibition at 20 µM ([2]; read-out: % Inhibition Run 1) was 100% and the inhibition at 20 µM ([2]; read-out: % Inhibition Run 2) was 100%. For the same compound, the MIC ([3]; read-out: MTB MIC) was 4.5 µM (≈ 1.2 µg/mL).

For `O=C(c1c(Cl)cccc1Cl)N1COCN(c2ccc(C(F)(F)F)cc2)C1=O` [ACU-1], the IC20 at 72 h [1] was 65 µM, the inhibition at 20 µM ([2]; read-out: % Inhibition Run 1) was 98% and the inhibition at 20 µM ([2]; read-out: % Inhibition Run 2) was 98%. For the same compound, the MIC ([3]; read-out: MTB MIC) was 7.6 µM (≈ 3.19 µg/mL).

`c1ccc(N2CCN(Cc3cnc4ccccc4n3)CC2)cc1` [AMQ-5] gave an IC20 at 72 h [1] of 2 µM, an inhibition at 20 µM ([2]; read-out: % Inhibition Run 1) of 98% and an inhibition at 20 µM ([2]; read-out: % Inhibition Run 2) of 99%. For the same compound, the MIC ([3]; read-out: MTB MIC) was 7.8 µM (≈ 2.37 µg/mL).

`Clc1ccc(-c2nc(Cn3ccnc3)cs2)cc1` [AMT-1] showed an IC20 at 72 h [1] of 34 µM, an inhibition at 20 µM ([2]; read-out: % Inhibition Run 1) of 98% and an inhibition at 20 µM ([2]; read-out: % Inhibition Run 2) of 96%. The MIC ([3]; read-out: MTB MIC) was 35 µM (≈ 9.65 µg/mL).

`CNc1cc(-c2ccccn2)nc(-c2ccccn2)n1` [APDP-1] gave an IC20 at 72 h [1] of 0.028 µM, an inhibition at 20 µM ([2]; read-out: % Inhibition Run 1) of 99% and an inhibition at 20 µM ([2]; read-out: % Inhibition Run 2) of 100%. The IC90 [3] was 10 µM and the MIC ([3]; read-out: MTB MIC) was 10 µM (≈ 2.63 µg/mL).

With `O=S(=O)(Nc1ccccc1-c1nn[nH]n1)c1ccc(OC(F)(F)F)cc1` [APT] the IC20 at 72 h [1] was 0.47 µM, the inhibition at 20 µM ([2]; read-out: % Inhibition Run 1) was 99% and the inhibition at 20 µM ([2]; read-out: % Inhibition Run 2) was 99%. For the same compound, the MIC ([3]; read-out: MTB MIC) was 6.9 µM (≈ 2.66 µg/mL).

`N#C/C(=C\NC1CCCCC1)c1nc2ccccc2[nH]1` [BCI-2] gave an IC20 at 72 h [1] of 0.85 µM, an inhibition at 20 µM ([2]; read-out: % Inhibition Run 1) of 100% and an inhibition at 20 µM ([2]; read-out: % Inhibition Run 2) of 100%. The MIC ([3]; read-out: MTB MIC) was 9.6 µM (≈ 2.56 µg/mL).

Compound `CCC(=O)Nc1nc(-c2nc3ccccc3oc2=O)cs1` [BOZ] has an IC20 at 72 h [1] of 37 µM, an inhibition at 20 µM ([2]; read-out: % Inhibition Run 1) of 99% and an inhibition at 20 µM ([2]; read-out: % Inhibition Run 2) of 100%. The MIC ([3]; read-out: MTB MIC) was 4.8 µM (≈ 1.45 µg/mL).

With `Cc1cnc(-n2nnc3ccccc3c2=O)s1` [BTT] the IC20 at 72 h [1] was 37 µM, the inhibition at 20 µM ([2]; read-out: % Inhibition Run 1) was 100% and the inhibition at 20 µM ([2]; read-out: % Inhibition Run 2) was 100%. For the same compound, the MIC ([3]; read-out: MTB MIC) was 4.8 µM (≈ 1.17 µg/mL).

`Nc1ccnc(Nc2ccccc2Nc2ccccc2)n1` [DAP] gave an IC20 at 72 h [1] of 0.83 µM, an inhibition at 20 µM ([2]; read-out: % Inhibition Run 1) of 99% and an inhibition at 20 µM ([2]; read-out: % Inhibition Run 2) of 99%. The MIC ([3]; read-out: MTB MIC) was 0.7 µM (≈ 0.194 µg/mL).

Compound `NCC(c1ccco1)S(=O)(=O)c1ccccc1` (stereo not drawn) [FAS] has an IC20 at 72 h [1] of 2 µM, an inhibition at 20 µM ([2]; read-out: % Inhibition Run 1) of 100% and an inhibition at 20 µM ([2]; read-out: % Inhibition Run 2) of 100%. For the same compound, the MIC ([3]; read-out: MTB MIC) was 9.5 µM (≈ 2.39 µg/mL).

For `O=C(Nc1nc2ccccc2s1)NC1C2CC3CC(C2)CC1C3` (stereo not drawn) [HBU-1], the IC20 at 72 h [1] was 8.2 µM, the inhibition at 20 µM ([2]; read-out: % Inhibition Run 1) was 100% and the inhibition at 20 µM ([2]; read-out: % Inhibition Run 2) was 100%. The IC90 [3] was 4.2 µM and the MIC ([3]; 120 h, read-out: MTB MIC) was 4.2 µM (≈ 1.38 µg/mL).

`CNC(=O)N(O)C1c2cccc(F)c2Oc2ccsc21` (stereo not drawn) [HDU-2] showed an IC20 at 72 h [1] of 42 µM, an inhibition at 20 µM ([2]; read-out: % Inhibition Run 1) of 99% and an inhibition at 20 µM ([2]; read-out: % Inhibition Run 2) of 100%. It also gave an MIC ([3]; read-out: MTB MIC) of 19 µM (≈ 5.59 µg/mL).

Work on `CCC1(N2CCC(c3ccccc3)CC2)CCCCC1` [Molecule 4PP-1, 1-(1-Ethyl-cyclohexyl)-4-phenyl-piperidine] yielded an IC20 [1] of over 80 µM, an inhibition at 20 µM ([2]; read-out: % Inhibition Run 1) of 100% and an inhibition at 20 µM ([2]; read-out: % Inhibition Run 2) of 99%. It also gave an IC90 [3] of 6.3 µM, an MIC ([3]; 120 h, read-out: MIC) of 6.3 ± 2.7 µM (≈ 1.71 µg/mL) and an MIC [3, 6] of 6.3 µM (≈ 1.71 µg/mL). It also gave an MIC ([3]; read-out: MIC) of 6.3 µM (≈ 1.71 µg/mL) and an MIC ([3]; read-out: MTB MIC) of 6.3 µM (≈ 1.71 µg/mL).

In the case of `O=C(O)C(F)(F)F.c1cc(C2CCN(CC3CCCCC3)CC2)ccn1` [Molecule 4PP-32, 4-[1-(Cyclohexylmethyl)-4-piperidyl]pyridine, 2,2,2-trifluoroacetic acid salt], the MIC [4] is reported as 1.6 µM, the “anti-tubercular activity (in words)” value [3] is reported as “inactive” and the MIC ([3]; 120 h, read-out: MIC) is reported as over 20 µM.

`COc1ccc(CCNC(=O)C2(c3ccccc3)CCC2)cc1Br` [PCB-1, N-(3-bromo-4-methoxyphenethyl)-1-phenylcyclobutane-1-carboxamide] gave a CLint scaled at 0.5 µM [5] of 1330 mL/min/kg, an IC20 at 72 h [1] of 33 µM and an inhibition at 20 µM ([2]; read-out: % Inhibition Run 1) of 100%. It also gave an inhibition at 20 µM ([2]; read-out: % Inhibition Run 2) of 100%, an MIC ([3]; 120 h, read-out: MIC) of 6.9 ± 1.7 µM (≈ 2.68 µg/mL) and an MIC ([3]; read-out: MIC) of 6.9 µM (≈ 2.68 µg/mL). For the same compound, the MIC ([3]; read-out: MTB MIC) was 6.9 µM (≈ 2.68 µg/mL).

For `O=C(NCCc1cccc(Br)c1)C1(c2ccc(F)cc2)CCC1` [PCB-19, N-(3-bromophenethyl)-1-(4-fluorophenyl)cyclobutane-1-carboxamide], the “microsomal clearance / stability (in words)” value ([5]; human microsomes) was “very poor microsomal stability”, the CLint scaled at 0.5 µM [5] was 3920 mL/min/kg and the MIC [4] was 0.63 µM (≈ 0.237 µg/mL). For the same compound, the MIC ([3]; 120 h, read-out: MIC) was 2.3 ± 0.7 µM (≈ 0.865 µg/mL) and the MIC [3, 6] was 2.3 µM (≈ 0.865 µg/mL).
